Structures are written as SMILES. Like-named read-outs stand apart in the source and are kept apart here. Marks after values point to notes of the source that are not given here.

These results are taken from patent US10975068B2, “6-aminopyridin-3-yl thiazoles as modulators of RORγT” (Janssen Pharmaceutica NV, priority 2016, dated 2021).

For one assay, the target named is full-length human RORγt (Homo sapiens (Human), UniProt P51449). The assay is described as follows: RORγt (full-length human) reporter assay, Conditions B or C. It counts as cell-based. The following applies: for RORγt (FL) Reporter Assay B or C, % inhibition (value marked *): marked *: footnote not given; for IC50: read-out: RORγt (FL) Reporter Assay B or C, IC50; for inhibition at 3 µM: read-out: RORγt (FL) Reporter Assay B or C, % inhibition. The essentials:
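Readout is dual luciferase: firefly (GAL4-driven) normalized to DMSO-only and saturating-reference controls, then to CMV-Renilla. Full-length human RORγt fused to GAL4-DBD was transiently expressed in HEK293T; compound exposure ran overnight (16-20 h) starting 4-6 h after transfection, final FBS 1.3%, DMSO 0.1%.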

Assay [1] addresses human RORγt ligand binding domain (RORγt LBD) (Homo sapiens (Human), UniProt P51449). Nature of the assay: RORγt ThermoFluor® assay (thermal shift binding). The conditions noted are these: read-out: ThermoFluor® Assay, Kd. The essentials:
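Binding was inferred from thermal stabilisation (ΔTm) of the E. coli-expressed RORγt LBD (0.065 mg/mL), monitored by 1,8-ANS (60 μM) emission at 500 nm during a 1 °C/min ramp. Buffer was Hepes 100 mM pH 7.0 with NaCl, GSH and Tween-20.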

Sequence of full-length human RORγt (P51449 other isoform, or with tags, fused parts or gaps): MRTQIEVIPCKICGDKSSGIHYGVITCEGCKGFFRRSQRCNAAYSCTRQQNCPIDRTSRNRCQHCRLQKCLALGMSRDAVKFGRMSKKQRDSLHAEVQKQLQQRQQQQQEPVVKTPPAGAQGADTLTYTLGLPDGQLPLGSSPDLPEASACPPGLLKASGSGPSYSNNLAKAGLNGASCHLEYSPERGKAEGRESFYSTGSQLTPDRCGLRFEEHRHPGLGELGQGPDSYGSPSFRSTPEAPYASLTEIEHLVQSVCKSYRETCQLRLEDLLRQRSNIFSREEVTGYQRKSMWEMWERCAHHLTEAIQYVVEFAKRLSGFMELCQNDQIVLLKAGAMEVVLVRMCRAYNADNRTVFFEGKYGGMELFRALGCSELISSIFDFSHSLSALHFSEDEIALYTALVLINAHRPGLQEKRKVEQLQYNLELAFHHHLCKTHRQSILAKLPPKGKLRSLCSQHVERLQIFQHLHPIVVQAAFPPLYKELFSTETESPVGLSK
Sequence of human RORγt ligand binding domain (RORγt LBD) (P51449 other isoform, or with tags, fused parts or gaps): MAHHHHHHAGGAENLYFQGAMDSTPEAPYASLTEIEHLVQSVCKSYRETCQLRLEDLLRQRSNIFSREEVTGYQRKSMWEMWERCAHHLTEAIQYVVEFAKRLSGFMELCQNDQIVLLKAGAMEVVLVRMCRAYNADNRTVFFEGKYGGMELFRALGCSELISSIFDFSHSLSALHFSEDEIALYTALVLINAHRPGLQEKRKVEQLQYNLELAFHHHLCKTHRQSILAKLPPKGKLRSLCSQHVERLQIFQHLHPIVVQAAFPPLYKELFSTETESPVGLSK

As to `C[C@H]1CCCN1C(=O)c1nc(C(=O)NC2CS(=O)(=O)C2)sc1-c1cnc(NC2CCCC2)cc1C(F)F` [Example 61, (S)-5-(6-(Cyclopentylamino)-4-(difluoromethyl)pyridin-3-yl)-N-(1,1-dioxidothietan-3-yl)-4-(2-methylpyrrolidine-1-carbonyl)thiazole-2-carboxamide], at full-length human RORγt (Conditions B or C), the “RORγt (FL) Reporter Assay B or C, % inhibition (value marked *)” value (from here on “RORγt … % inhibition (value marked *)”) is reported as 103* % and the IC50 is 13 nM. Also, the dissociation constant (Kd) in assay [1] came out at 7 nM.

Consider `C[C@H](Nc1cc(C(F)F)c(-c2sc(C(=O)N[C@@H]3CC[C@H]3O)nc2C(=O)N2C3CCC2CC3)cn1)C(F)(F)F` (relative stereo) [Example 291, 4-((1s,4s)-7-Azabicyclo[2.2.1]heptane-7-carbonyl)-5-(4-(difluoromethyl)-6-(((S)-1,1,1-trifluoropropan-2-yl)amino)pyridin-3-yl)-N-((1R*,2R*)-2-hydroxycyclobutyl)thiazole-2-carboxamide], for which, on full-length human RORγt (at 3 μM compound concentration), the inhibition at 3 µM was 113%. Besides, the IC50 on full-length human RORγt is 120 nM. Also, the Kd in assay [1] was 6.9 nM.

As for `C[C@H]1CCCN1C(=O)c1nc(C(=O)NCC(C)(C)O)sc1-c1cnc(NCC2(C(F)(F)F)CCC2)cc1C(F)(F)F` [Example 117, (S)—N-(2-Hydroxy-2-methylpropyl)-4-(2-methylpyrrolidine-1-carbonyl)-5-(4-(trifluoromethyl)-6-(((1-(trifluoromethyl)cyclobutyl)methyl)amino)pyridin-3-yl)thiazole-2-carboxamide], at full-length human RORγt (Conditions B or C), the “RORγt … % inhibition (value marked *)” value is listed as 107* % and the IC50 amounted to 3.3 nM. For the same compound, the dissociation constant Kd in assay [1] was 0.78 nM.

In the case of `C[C@H]1CCCN1C(=O)c1nc(C(=O)NCC(C)(C)O)sc1-c1cnc(NCC(C)(C)C(F)(F)F)cc1C(F)(F)F` [Example 120, (S)—N-(2-Hydroxy-2-methylpropyl)-4-(2-methylpyrrolidine-1-carbonyl)-5-(6-((3,3,3-trifluoro-2,2-dimethylpropyl)amino)-4-(trifluoromethyl)pyridin-3-yl)thiazole-2-carboxamide], at full-length human RORγt (Conditions B or C), the “RORγt … % inhibition (value marked *)” value is 103* % and the 50% inhibitory concentration (IC50) worked out at 26 nM. The dissociation constant Kd in assay [1] was determined as 1.7 nM.

Consider `C[C@H](NC(=O)c1nc(C(=O)N2C3CCC2CC3)c(-c2cnc(N[C@@H](C)C(F)(F)F)cc2C(F)F)s1)C(C)(C)O` [Example 446, 4-((1s,4s)-7-Azabicyclo[2.2.1]heptane-7-carbonyl)-5-[4-(difluoromethyl)-6-[[(1S)-2,2,2-trifluoro-1-methyl-ethyl]amino]-3-pyridyl]-N-[(1S)-2-hydroxy-1,2-dimethyl-propyl]thiazole-2-carboxamide], for which the inhibition at 3 µM at full-length human RORγt (at 3 μM compound concentration) stood at 108%. Besides, the IC50 at full-length human RORγt is 180 nM. In addition, the Kd in assay [1] was found to be 13 nM.

On to `CCC(C)(C)Nc1cc(C(F)(F)F)c(-c2sc(C(=O)NCC(C)(C)O)nc2C(=O)N2CC(F)(F)C[C@@H]2C)cn1` [Example 103, (S)-4-(4,4-Difluoro-2-methylpyrrolidine-1-carbonyl)-N-(2-hydroxy-2-methylpropyl)-5-(6-(tert-pentylamino)-4-(trifluoromethyl)pyridin-3-yl)thiazole-2-carboxamide], for which, on full-length human RORγt (Conditions B or C), the “RORγt … % inhibition (value marked *)” value was 110* % and the half-maximal inhibitory concentration (IC50) amounted to 3.9 nM. In assay [1], the Kd worked out at 0.26 nM.

Consider `C[C@H](Nc1cc(C(F)(F)F)c(-c2sc(C(=O)N[C@@H](C)C(C)(C)O)nc2C(=O)N2CC(F)(F)C[C@@H]2C)cn1)C1CC1` [Example 202, 5-(6-(((S)-1-Cyclopropylethyl)amino)-4-(trifluoromethyl)pyridine-3-yl)-4-((S)-4,4-difluoro-2-methylpyrrolidine-1-carbonyl)-N—((S)-3-hydroxy-3-methylbutan-2-yl)thiazole-2-carboxamide], for which, at full-length human RORγt (Conditions B or C), the “RORγt … % inhibition (value marked *)” value is listed as 98* % and the half-inhibitory concentration (IC50) came to 17 nM. Also, the equilibrium dissociation constant (Kd) in assay [1] was found to be 1.3 nM.

In the case of `CC(C)(C)CNc1cc(C(F)(F)F)c(-c2sc(C(=O)NCC(C)(C)O)nc2C(=O)N2C3CCC2CC3)cn1` [Example 84, 4-((1s,4s)-7-Azabicyclo[2.2.1]heptane-7-carbonyl)-N-(2-hydroxy-2-methylpropyl)-5-(6-(neopentylamino)-4-(trifluoromethyl)pyridin-3-yl)thiazole-2-carboxamide], at full-length human RORγt (Conditions B or C), the “RORγt … % inhibition (value marked *)” value is 136* % and the IC50 worked out at 18 nM. The Kd in assay [1] was determined as 1.2 nM.

With `CC[C@H](Nc1cc(C(F)F)c(-c2sc(C(=O)N[C@H](C)CO)nc2C(=O)N2CC(F)(F)C[C@@H]2C)cn1)C(F)(F)F` [Example 423, 4-[(2S)-4,4-Difluoro-2-methyl-pyrrolidine-1-carbonyl]-5-[4-(difluoromethyl)-6-[[(1S)-1-(trifluoromethyl)propyl]amino]-3-pyridyl]-N-[(1R)-2-hydroxy-1-methyl-ethyl]thiazole-2-carboxamide], the inhibition at 3 µM at full-length human RORγt (at 3 μM compound concentration) stood at 103%. Also, the IC50 at full-length human RORγt was 38 nM. Also, the Kd in assay [1] was determined as 1.1 nM.

With `C[C@H](NC(=O)c1nc(C(=O)N2CC(F)(F)C[C@@H]2C)c(-c2cnc(NC3(C)CCC3)cc2C(F)(F)F)s1)C(C)(C)O` [Example 195, 4-((S)-4,4-Difluoro-2-methylpyrrolidine-1-carbonyl)-N—((S)-3-hydroxy-3-methylbutan-2-yl)-5-(6-((1-methylcyclobutyl)amino)-4-(trifluoromethyl)pyridine-3-yl)thiazole-2-carboxamide], on full-length human RORγt (Conditions B or C), the “RORγt … % inhibition (value marked *)” value was 85* % and the IC50 was found to be 33 nM. Further, the Kd in assay [1] came to 0.43 nM.

On to `CC(C)(O)CNC(=O)c1nc(C(=O)N2C3CCC2CC3)c(-c2cnc(NC3CCCC3)cc2C(F)(F)F)s1` [Example 53, 4-((1s,4s)-7-Azabicyclo[2.2.1]heptane-7-carbonyl)-5-(6-(cyclopentylamino)-4-(trifluoromethyl)pyridin-3-yl)-N-(2-hydroxy-2-methylpropyl)thiazole-2-carboxamide], for which, on full-length human RORγt (Conditions B or C), the “RORγt … % inhibition (value marked *)” value is listed as 109* % and the IC50 is 23 nM. Besides, the Kd in assay [1] came out at 5.8 nM.

For `C[C@H](Nc1cc(C(F)F)c(-c2sc(C(=O)NC3CCOCC3)nc2C(=O)N2CCC[C@@H]2C)cn1)C(F)(F)F` [Example 287, 5-(4-(Difluoromethyl)-6-(((S)-1,1,1-trifluoropropan-2-yl)amino)pyridin-3-yl)-4-((S)-2-methylpyrrolidine-1-carbonyl)-N-(tetrahydro-2H-pyran-4-yl)thiazole-2-carboxamide], the inhibition at 3 µM on full-length human RORγt (at 3 μM compound concentration) is 109%. Also, at full-length human RORγt, the IC50 was determined as 34 nM. For the same compound, the dissociation constant (Kd) in assay [1] worked out at 4.3 nM.

In the case of `C[C@H](Nc1cc(C(F)F)c(-c2sc(C(=O)N[C@H]3CC[C@@H]3O)nc2C(=O)N2CCC[C@@H]2C)cn1)C(F)(F)F` (relative stereo) [Example 388, 5-(4-(Difluoromethyl)-6-(((S)-1,1,1-trifluoropropan-2-yl)amino)pyridin-3-yl)-N-((1S*,2S*)-2-hydroxycyclobutyl)-4-((S)-2-methylpyrrolidine-1-carbonyl)thiazole-2-carboxamide], at full-length human RORγt (at 3 μM compound concentration), the inhibition at 3 µM came out at 103%. Also, the IC50 on full-length human RORγt is 85 nM. For the same compound, in assay [1], the Kd was 8.6 nM.

Regarding `C[C@H](Nc1cc(C(F)F)c(-c2sc(C(=O)NC3CCC3O)nc2C(=O)N2CCC[C@@H]2C)cn1)C(F)(F)F` (stereo partly drawn) [Example 389, 5-(4-(Difluoromethyl)-6-(((S)-1,1,1-trifluoropropan-2-yl)amino)pyridin-3-yl)-N-(cis-2-hydroxycyclobutyl)-4-((S)-2-methylpyrrolidine-1-carbonyl)thiazole-2-carboxamide], the “RORγt (FL) Reporter Assay B or C, % inhibition” value at full-length human RORγt (at 3 μM compound concentration) is reported as 90* %. Moreover, on full-length human RORγt, the IC50 amounted to 140 nM. For the same compound, in assay [1], the Kd was determined as 7.7 nM.

Consider `CC[C@H](Nc1cc(C(F)F)c(-c2sc(C(=O)NC3CCS(=O)(=O)CC3)nc2C(=O)N2CC(F)(F)C[C@@H]2C)cn1)C(F)(F)F` [Example 426, 4-[(2S)-4,4-Difluoro-2-methyl-pyrrolidine-1-carbonyl]-5-[4-(difluoromethyl)-6-[[(1S)-1-(trifluoromethyl)propyl]amino]-3-pyridyl]-N-(1,1-dioxothian-4-yl)thiazole-2-carboxamide], for which the inhibition at 3 µM at full-length human RORγt (at 3 μM compound concentration) was 96%. Also, at full-length human RORγt, the concentration for half-maximal inhibition (IC50) was found to be 79 nM. Also, the equilibrium dissociation constant (Kd) in assay [1] is 0.37 nM.

Consider `CC[C@H](Nc1cc(C(F)F)c(-c2sc(C(=O)N[C@@H]3CCC[C@H]3O)nc2C(=O)N2CC(F)(F)C[C@@H]2C)cn1)C(F)(F)F` [Example 425, 4-[(2S)-4,4-Difluoro-2-methyl-pyrrolidine-1-carbonyl]-5-[4-(difluoromethyl)-6-[[(1S)-1-(trifluoromethyl)propyl]amino]-3-pyridyl]-N-[(1R,2R)-2-hydroxycyclopentyl]thiazole-2-carboxamide], for which, on full-length human RORγt (at 3 μM compound concentration), the inhibition at 3 µM came to 103%. For the same compound, the concentration for half-maximal inhibition (IC50) at full-length human RORγt turned out to be 50 nM. The Kd in assay [1] came out at 0.18 nM.

Regarding `C[C@H]1CCCCN1C(=O)c1nc(C(=O)NCC(C)(C)O)sc1-c1cnc(NC2CCCCC2)cc1C(F)F` [Example 34, (S)-5-(6-(Cyclohexylamino)-4-(difluoromethyl)pyridin-3-yl)-N-(2-hydroxy-2-methylpropyl)-4-(2-methylpiperidine-1-carbonyl)thiazole-2-carboxamide], the IC50 on full-length human RORγt (Conditions B or C) was determined as 6.9 nM. Moreover, the inhibition at 6 µM at full-length human RORγt (read-out: RORγt (FL) Reporter Assay B or C, % inhibition @ 6 μM, Conditions B or C, @ 6 μM) amounted to 105%. Besides, in assay [1], the Kd stood at 0.29 nM.
